Paper PMC5574184 (Journal of medicinal chemistry, 2016)
“Also recorded” adds a separate entry of the source.

Tests used:
HDAC1 = HDAC1 (Homo sapiens, UniProt Q13547); assay: ELISA-based HDAC activity assay; assay type: biochemical
HDAC3 = HDAC3 (Homo sapiens, UniProt O15379); assay: ELISA-based HDAC activity assay; assay type: biochemical
HDAC2 = HDAC2 (Homo sapiens, UniProt Q92769); assay: ELISA-based HDAC activity assay; assay type: biochemical
60 NCI cell lines = assay: NCI-60 dose response assay; assay type: cell-based, human; settings: for GI50 in the dose response assay (in words): most of the NCI-60 cell lines
HDAC6 = molecular target: T1, HDAC6 (Homo sapiens, UniProt Q9UBN7); assay: ELISA-based HDAC activity assay; assay type: biochemical
T1 sequence (Q9UBN7 1-1215): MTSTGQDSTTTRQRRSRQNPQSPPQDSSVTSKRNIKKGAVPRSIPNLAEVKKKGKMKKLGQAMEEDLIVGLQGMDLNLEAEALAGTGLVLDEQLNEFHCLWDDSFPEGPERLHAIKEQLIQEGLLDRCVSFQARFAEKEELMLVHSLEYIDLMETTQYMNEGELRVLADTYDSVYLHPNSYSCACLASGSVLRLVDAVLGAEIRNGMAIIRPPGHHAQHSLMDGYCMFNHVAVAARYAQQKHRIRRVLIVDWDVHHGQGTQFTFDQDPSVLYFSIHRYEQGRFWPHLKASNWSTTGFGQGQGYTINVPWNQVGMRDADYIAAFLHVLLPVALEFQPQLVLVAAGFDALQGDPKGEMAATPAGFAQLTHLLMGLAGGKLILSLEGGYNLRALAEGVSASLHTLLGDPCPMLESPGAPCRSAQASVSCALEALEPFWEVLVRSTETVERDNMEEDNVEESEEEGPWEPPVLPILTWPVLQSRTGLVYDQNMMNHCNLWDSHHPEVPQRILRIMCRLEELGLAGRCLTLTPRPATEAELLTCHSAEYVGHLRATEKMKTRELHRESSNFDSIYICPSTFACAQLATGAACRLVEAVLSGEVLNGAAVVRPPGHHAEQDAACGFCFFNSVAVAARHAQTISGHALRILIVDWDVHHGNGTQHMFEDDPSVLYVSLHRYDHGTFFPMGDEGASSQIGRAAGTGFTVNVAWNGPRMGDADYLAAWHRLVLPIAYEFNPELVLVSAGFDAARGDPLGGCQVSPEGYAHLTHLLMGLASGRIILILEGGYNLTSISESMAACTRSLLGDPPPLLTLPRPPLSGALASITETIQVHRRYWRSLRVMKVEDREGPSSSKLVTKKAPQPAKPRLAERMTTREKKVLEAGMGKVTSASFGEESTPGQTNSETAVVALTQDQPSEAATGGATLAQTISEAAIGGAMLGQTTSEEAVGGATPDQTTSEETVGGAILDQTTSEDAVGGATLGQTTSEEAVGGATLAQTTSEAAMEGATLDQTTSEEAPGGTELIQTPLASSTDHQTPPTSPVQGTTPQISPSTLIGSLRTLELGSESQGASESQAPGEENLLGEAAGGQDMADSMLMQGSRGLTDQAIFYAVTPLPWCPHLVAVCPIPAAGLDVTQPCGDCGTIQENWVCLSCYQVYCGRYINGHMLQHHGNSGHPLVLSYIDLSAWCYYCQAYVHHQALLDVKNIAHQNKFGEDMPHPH

[1] = tested on: global histone H3 lysine 9 (H3K9) acetylation in HCT116; assay: Western blot analysis of global histone H3 lysine 9 acetylation; assay type: cell-based, human; settings: for concentration at which significant induction of global acetylation was observed: HCT116, 24 h exposure, tested at 10 nM, 100 nM, 1 μM
[2] = NCI nontumored animal toxicity assay for acute toxicity; assay type: in vivo; settings: highest dose of 50 mg/kg tested
[3] = tested on: HCT116 colorectal cancer cell line; settings: read-out: GI50 previously reported; HCT 116 cell growth inhibition; cited from earlier work
[4] = mouse serum, mouse microsomal proteins, cellular proteins; cited from earlier work

Chain of HDAC1 (Q13547 whole entry): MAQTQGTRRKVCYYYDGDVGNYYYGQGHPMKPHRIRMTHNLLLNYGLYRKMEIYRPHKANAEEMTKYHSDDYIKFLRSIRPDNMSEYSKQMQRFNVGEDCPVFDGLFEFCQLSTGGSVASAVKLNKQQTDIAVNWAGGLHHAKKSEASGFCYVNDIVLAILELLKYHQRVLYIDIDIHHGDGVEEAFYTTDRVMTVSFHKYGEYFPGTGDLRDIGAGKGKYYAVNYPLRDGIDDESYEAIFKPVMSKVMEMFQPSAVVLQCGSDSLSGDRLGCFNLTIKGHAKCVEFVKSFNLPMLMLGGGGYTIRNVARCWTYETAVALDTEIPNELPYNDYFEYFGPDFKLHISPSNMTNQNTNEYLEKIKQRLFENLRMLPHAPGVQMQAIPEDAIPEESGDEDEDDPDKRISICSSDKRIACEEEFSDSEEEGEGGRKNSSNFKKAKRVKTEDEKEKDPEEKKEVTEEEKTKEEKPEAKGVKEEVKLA
Chain of HDAC3 (O15379 whole entry): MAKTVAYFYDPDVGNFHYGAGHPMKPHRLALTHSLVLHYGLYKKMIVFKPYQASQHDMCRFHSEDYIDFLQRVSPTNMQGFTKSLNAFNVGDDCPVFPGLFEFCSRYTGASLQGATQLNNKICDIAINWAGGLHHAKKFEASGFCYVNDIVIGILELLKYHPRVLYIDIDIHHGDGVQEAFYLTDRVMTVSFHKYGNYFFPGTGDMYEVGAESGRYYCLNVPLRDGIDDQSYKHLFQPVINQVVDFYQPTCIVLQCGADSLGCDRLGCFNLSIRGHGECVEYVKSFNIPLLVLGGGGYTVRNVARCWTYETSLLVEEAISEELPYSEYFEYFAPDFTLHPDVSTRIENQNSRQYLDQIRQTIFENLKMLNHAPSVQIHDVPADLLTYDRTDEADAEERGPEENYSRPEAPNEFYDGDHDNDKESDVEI
Chain of HDAC3 (Q9Y618 whole entry partner): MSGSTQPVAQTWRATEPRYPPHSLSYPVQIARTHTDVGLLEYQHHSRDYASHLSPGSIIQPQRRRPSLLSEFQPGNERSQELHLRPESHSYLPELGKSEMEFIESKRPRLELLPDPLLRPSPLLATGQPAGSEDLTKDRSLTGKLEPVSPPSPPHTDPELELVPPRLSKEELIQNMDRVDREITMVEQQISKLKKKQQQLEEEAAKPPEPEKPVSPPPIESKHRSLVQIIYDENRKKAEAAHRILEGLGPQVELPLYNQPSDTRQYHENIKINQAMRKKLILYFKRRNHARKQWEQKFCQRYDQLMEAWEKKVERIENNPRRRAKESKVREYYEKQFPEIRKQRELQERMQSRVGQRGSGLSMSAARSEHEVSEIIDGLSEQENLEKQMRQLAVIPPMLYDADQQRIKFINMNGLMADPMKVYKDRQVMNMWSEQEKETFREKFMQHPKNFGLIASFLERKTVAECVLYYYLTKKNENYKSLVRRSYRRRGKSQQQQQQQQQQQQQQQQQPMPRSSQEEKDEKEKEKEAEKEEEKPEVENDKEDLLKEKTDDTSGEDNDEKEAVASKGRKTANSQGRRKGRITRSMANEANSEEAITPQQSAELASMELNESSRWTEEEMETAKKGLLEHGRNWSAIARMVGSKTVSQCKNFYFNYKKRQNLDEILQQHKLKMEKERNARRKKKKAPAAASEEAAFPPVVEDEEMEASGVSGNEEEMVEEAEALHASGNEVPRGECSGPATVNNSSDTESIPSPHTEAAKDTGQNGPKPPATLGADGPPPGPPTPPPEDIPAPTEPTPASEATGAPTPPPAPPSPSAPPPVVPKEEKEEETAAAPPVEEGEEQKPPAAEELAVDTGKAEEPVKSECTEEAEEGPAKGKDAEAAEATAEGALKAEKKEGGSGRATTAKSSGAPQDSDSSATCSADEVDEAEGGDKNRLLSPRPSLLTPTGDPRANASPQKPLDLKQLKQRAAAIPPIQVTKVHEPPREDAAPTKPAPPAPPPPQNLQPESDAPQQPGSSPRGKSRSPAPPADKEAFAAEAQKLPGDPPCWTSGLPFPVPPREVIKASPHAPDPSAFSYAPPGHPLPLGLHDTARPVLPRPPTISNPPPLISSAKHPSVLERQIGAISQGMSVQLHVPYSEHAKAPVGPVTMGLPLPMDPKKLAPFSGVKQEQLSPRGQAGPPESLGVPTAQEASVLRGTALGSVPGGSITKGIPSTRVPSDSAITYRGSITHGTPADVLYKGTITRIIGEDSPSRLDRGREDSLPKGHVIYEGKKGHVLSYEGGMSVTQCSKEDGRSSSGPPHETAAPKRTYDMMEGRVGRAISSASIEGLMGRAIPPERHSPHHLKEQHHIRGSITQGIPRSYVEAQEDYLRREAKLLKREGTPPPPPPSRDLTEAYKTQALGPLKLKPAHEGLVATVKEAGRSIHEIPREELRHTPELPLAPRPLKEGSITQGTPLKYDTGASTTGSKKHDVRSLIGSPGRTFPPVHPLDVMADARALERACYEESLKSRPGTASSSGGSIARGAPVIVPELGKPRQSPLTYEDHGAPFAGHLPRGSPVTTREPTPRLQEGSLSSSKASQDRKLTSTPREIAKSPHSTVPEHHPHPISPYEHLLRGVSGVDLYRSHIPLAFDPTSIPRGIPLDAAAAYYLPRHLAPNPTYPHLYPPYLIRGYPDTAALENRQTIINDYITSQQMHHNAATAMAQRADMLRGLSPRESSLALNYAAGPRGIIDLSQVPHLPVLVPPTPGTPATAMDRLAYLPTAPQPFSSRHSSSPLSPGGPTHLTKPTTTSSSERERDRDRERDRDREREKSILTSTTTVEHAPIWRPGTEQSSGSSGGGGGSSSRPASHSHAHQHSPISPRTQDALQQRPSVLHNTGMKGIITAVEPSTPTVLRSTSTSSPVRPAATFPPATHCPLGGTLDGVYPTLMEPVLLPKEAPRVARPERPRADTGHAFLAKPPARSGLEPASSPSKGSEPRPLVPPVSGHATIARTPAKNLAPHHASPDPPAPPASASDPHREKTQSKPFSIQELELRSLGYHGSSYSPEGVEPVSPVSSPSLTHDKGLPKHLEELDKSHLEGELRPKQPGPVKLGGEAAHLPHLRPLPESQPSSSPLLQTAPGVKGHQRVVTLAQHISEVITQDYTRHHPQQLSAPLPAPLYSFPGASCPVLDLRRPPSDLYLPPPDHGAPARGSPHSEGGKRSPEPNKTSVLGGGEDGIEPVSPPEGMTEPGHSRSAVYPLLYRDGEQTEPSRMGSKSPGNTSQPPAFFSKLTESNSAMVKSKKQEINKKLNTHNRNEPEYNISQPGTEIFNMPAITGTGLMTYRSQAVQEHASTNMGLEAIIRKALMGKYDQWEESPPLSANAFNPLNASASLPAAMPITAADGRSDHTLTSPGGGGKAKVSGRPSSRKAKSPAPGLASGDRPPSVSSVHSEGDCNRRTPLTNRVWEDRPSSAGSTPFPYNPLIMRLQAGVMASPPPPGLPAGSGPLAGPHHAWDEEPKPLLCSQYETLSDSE
Chain of HDAC2 (Q92769 whole entry): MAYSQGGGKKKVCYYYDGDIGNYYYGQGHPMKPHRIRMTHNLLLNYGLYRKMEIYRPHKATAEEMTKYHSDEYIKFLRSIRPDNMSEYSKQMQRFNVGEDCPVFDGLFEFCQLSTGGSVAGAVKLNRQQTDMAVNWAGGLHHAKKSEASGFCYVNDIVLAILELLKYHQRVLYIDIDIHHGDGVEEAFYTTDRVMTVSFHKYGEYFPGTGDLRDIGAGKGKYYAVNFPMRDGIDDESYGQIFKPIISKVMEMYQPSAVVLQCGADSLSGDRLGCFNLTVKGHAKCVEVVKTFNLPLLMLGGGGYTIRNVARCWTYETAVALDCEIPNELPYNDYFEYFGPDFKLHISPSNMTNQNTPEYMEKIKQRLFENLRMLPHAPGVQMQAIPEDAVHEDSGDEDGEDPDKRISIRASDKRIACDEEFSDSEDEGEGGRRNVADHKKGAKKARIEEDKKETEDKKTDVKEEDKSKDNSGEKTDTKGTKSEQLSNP

SMILES: CCCCCCCC(=O)SCC/C=C/[C@@H]1CC(=O)NCCOCCOCC(=O)N[C@@H](C(C)C)C(=O)O1 [Analogue 6]
- inhibition of HDAC1, single concentration screen (HDAC1; 2 μM): significantly
- inhibition of HDAC3, single concentration screen (HDAC3; 2 μM): significantly
- inhibition of HDAC2, single concentration screen (HDAC2; 2 μM): significantly

SMILES: CCCCCCCC(=O)SCC/C=C/[C@@H]1CC(=O)NCc2cccc(n2)-c2cccc(n2)C(=O)N[C@@H](C(C)C)C(=O)O1 [Analogue 7]
- concentration inhibiting the growth of most of the cancer cell lines (60 NCI cell lines; NCI-60 dose response): < 10 nM
- GI50 in the dose response assay (in words) (60 NCI cell lines): low nanomolar
- selectivity for class I HDAC proteins (HDAC1, HDAC2, HDAC3) over class II HDAC6 (HDAC6; from IC50 values): at least 464 fold
- concentration at which significant induction of global acetylation was observed [1]: 10 nM
- inhibition of HDAC1, single concentration screen (HDAC1; 250 nM): significantly
- inhibition of HDAC3, single concentration screen (HDAC3; 250 nM): significantly
- acute toxicity [2]: no signs of toxicity; also recorded: well tolerated
- inhibition of HDAC2, single concentration screen (HDAC2; 250 nM): significantly

SMILES: CCCCCCCC(=O)SCC/C=C/[C@@H]1CC(=O)NCc2cccc(n2)CN(C)CC(=O)N[C@@H](C(C)C)C(=O)O1 [Analogue 8]
- GI50 in the dose response assay (in words) (60 NCI cell lines): micromolar GI50s
- inhibition of HDAC6, single concentration screen (HDAC6; 1 μM): slightly greater inhibition of HDAC6 compared to 6 and 7

SMILES: CCCCCCCC(=O)SCC/C=C/[C@@H]1CC(=O)NCc2cccc(n2)CN(Cc2cccc3ccccc23)CC(=O)N[C@@H](C(C)C)C(=O)O1 [Analogue 13]
- global acetylation observed ([1]; HCT116, even at 100 nM): hardly any global acetylation

SMILES: CCCCCCCC(=O)SCC/C=C/[C@@H]1CC(=O)NCc2nc(cs2)C2=N[C@@](C)(CS2)C(=O)N[C@@H](C(C)C)C(=O)O1 [Largazole]
- GI50 [3]: 44 nM
- concentration at which significant induction of global acetylation was observed [1]: 10 nM
- metabolic conversion [4]: rapidly converted to the active metabolite largazole thiol
